Experimental data from PMC4858680, “A platinum-based hybrid drug design approach to circumvent acquired resistance to molecular targeted tyrosine kinase inhibitors” (Scientific Reports, 2016).

Legend:
EGFR = EGFR (Homo sapiens, UniProt P00533); assay: biochemical; conditions: read-out: Percent control
EGFR(T790M) = EGFR(T790M) (Homo sapiens, UniProt P00533, T790M); conditions: 10 μM
TIE1 = molecular target: T1, TIE1 (Homo sapiens, UniProt P35590); format: binding; conditions: 10 μM
T1 construct: purchased DiscoveRx (KINOMEscan service)

EGFR(L858R) = EGFR(L858R) (Homo sapiens, UniProt P00533, L858R); conditions: 10 μM
[1] = molecular target: T2, ABL1(H396P)-nonphosphorylated (Homo sapiens, UniProt P00519, H396P); conditions: 10 μM
[2] = molecular target: ABL1(F317I)-phosphorylated (Homo sapiens, UniProt P00519, F317I); conditions: 10 μM
[3] = molecular target: T3, ABL1(T315I)-phosphorylated (Homo sapiens, UniProt P00519, T315I); conditions: 10 μM
[4] = molecular target: ABL1(F317L)-phosphorylated (Homo sapiens, UniProt P00519, F317L); conditions: 10 μM
[5] = molecular target: ABL1(M351T)-phosphorylated (Homo sapiens, UniProt P00519, M351T); conditions: 10 μM
SRC = SRC (Homo sapiens, UniProt P12931); assay: biochemical; conditions: read-out: Percent control
EPHA1 = molecular target: T4, EPHA1 (Homo sapiens, UniProt P21709); assay: biochemical; conditions: read-out: Percent control
T4 sequence (P21709 26-976): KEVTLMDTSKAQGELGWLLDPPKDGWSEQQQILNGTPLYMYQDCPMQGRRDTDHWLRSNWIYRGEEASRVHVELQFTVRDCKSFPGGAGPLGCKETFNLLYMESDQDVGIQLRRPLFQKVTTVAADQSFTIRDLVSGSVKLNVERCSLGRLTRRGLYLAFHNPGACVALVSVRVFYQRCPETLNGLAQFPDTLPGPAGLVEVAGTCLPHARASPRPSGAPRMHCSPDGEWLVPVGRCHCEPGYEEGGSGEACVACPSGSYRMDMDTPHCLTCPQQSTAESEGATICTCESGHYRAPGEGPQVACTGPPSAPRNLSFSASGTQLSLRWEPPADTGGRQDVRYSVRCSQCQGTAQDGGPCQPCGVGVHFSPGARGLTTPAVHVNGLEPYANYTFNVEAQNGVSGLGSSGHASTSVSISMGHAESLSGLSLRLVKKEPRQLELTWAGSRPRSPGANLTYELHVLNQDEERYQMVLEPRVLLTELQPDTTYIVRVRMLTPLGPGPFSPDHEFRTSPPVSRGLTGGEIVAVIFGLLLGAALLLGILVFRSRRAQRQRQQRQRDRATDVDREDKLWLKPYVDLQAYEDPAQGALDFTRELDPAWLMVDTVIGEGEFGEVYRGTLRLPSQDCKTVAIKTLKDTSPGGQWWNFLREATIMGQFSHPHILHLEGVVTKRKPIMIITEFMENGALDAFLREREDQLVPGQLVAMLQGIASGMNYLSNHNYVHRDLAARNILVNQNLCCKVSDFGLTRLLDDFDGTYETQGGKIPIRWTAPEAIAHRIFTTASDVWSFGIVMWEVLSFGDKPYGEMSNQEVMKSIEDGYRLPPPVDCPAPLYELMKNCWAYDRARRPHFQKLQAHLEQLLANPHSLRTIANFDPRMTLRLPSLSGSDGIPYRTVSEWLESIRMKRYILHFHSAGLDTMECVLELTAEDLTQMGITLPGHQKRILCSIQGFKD

FLT3(N841I) = molecular target: T5, FLT3(N841I) (Homo sapiens, UniProt P36888, N841I); assay: biochemical; conditions: read-out: Percent control
T5 sequence (P36888 27-993 N841I): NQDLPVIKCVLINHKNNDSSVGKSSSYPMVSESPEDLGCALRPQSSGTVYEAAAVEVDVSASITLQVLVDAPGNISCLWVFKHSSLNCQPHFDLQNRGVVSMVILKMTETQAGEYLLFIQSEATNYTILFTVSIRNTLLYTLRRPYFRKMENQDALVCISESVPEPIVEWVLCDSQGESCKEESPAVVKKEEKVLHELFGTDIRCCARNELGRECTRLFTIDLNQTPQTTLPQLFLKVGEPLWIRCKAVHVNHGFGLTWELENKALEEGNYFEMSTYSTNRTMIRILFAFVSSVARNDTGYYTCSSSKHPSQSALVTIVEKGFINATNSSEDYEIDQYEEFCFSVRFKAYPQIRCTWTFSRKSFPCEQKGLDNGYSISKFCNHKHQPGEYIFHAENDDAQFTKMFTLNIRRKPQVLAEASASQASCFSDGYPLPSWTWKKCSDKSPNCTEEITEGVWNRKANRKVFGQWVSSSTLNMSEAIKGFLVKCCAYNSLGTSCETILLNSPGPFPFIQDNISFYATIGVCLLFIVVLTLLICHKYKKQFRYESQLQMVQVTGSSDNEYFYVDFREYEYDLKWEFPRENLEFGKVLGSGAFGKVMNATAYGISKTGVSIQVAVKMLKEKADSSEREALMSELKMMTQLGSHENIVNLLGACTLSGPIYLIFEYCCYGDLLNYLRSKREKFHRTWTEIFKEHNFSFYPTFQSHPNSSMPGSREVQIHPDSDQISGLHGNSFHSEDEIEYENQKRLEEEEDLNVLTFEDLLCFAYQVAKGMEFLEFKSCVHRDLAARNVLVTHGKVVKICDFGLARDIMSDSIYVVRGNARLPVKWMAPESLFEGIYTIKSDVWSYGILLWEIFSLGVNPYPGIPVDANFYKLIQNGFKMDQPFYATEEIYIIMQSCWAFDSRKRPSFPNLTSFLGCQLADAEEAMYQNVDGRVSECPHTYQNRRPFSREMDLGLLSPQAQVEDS

RET(M918T) = RET(M918T) (Homo sapiens, UniProt P07949, M918T); assay: biochemical; conditions: read-out: Percent control
[6] = molecular target: T3, ABL1(T315I)-phosphorylated; assay: biochemical; conditions: read-out: Percent control
[7] = molecular target: ABL1(Q252H)-phosphorylated (Homo sapiens, UniProt P00519, Q252H); assay: biochemical; conditions: read-out: Percent control
[8] = molecular target: T2, ABL1(H396P)-nonphosphorylated; assay: biochemical; conditions: read-out: Percent control

Chain of EGFR(L858R) (P00533 25-1210 L858R): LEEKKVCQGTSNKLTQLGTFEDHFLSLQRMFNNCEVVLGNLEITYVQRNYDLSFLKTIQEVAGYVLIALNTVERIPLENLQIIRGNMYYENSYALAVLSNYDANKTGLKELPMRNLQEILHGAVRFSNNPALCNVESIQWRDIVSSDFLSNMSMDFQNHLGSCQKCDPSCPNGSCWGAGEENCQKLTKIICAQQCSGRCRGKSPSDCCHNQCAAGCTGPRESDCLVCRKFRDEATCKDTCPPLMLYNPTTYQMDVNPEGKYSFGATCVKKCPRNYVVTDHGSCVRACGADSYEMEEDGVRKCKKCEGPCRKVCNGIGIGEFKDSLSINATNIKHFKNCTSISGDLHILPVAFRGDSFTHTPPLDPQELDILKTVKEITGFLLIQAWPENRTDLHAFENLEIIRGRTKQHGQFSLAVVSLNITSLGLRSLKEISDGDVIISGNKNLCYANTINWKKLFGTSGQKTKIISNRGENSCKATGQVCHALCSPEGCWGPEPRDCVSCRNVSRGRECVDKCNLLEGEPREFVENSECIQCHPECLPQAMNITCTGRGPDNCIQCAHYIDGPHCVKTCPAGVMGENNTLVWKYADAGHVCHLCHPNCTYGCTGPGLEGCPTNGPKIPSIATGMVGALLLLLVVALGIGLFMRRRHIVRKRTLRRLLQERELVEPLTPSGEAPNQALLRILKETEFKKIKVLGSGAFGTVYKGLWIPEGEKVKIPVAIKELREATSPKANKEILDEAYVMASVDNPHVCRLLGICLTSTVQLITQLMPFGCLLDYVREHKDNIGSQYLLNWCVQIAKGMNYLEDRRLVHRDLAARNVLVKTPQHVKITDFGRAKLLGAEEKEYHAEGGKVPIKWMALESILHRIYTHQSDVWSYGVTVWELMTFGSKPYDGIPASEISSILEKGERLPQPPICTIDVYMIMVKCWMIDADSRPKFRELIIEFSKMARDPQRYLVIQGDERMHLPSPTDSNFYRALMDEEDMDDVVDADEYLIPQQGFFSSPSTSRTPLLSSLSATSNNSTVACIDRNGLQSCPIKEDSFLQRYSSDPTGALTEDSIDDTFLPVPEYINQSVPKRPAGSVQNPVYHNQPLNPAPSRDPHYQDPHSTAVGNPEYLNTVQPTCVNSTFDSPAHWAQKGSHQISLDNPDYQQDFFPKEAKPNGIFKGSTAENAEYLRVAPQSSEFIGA
Chain of EGFR (P00533 25-1210): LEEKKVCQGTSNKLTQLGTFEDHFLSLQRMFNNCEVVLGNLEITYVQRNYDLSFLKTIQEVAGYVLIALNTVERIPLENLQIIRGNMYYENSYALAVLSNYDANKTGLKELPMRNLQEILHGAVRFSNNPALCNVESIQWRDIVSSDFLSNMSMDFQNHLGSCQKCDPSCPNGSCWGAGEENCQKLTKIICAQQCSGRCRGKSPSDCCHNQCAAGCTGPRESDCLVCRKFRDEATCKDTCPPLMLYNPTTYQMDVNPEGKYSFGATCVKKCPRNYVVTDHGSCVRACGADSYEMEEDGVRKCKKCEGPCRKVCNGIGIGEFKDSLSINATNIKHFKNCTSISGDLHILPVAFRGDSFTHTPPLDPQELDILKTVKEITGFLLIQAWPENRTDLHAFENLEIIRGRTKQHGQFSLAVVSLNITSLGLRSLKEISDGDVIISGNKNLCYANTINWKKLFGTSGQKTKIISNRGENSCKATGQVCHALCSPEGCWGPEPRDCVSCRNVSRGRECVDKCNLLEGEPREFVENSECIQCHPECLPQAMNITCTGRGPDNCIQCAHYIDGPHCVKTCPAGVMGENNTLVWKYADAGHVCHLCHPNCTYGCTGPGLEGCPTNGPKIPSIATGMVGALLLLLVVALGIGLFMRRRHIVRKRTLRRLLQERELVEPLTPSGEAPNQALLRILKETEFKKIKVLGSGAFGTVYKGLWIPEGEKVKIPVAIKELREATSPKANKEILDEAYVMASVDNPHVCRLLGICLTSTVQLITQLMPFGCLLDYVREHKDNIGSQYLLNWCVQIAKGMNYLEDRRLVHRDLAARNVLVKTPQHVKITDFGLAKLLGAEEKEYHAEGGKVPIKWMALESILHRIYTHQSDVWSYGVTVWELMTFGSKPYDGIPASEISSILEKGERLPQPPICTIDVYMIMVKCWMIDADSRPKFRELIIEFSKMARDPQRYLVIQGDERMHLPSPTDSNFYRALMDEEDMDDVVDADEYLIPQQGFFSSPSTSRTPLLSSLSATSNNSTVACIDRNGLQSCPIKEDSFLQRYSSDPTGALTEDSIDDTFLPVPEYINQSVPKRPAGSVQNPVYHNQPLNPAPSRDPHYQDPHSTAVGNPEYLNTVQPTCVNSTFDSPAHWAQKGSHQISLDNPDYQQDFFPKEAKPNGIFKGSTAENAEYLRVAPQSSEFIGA
Chain of RET(M918T) (P07949 29-1114 M918T): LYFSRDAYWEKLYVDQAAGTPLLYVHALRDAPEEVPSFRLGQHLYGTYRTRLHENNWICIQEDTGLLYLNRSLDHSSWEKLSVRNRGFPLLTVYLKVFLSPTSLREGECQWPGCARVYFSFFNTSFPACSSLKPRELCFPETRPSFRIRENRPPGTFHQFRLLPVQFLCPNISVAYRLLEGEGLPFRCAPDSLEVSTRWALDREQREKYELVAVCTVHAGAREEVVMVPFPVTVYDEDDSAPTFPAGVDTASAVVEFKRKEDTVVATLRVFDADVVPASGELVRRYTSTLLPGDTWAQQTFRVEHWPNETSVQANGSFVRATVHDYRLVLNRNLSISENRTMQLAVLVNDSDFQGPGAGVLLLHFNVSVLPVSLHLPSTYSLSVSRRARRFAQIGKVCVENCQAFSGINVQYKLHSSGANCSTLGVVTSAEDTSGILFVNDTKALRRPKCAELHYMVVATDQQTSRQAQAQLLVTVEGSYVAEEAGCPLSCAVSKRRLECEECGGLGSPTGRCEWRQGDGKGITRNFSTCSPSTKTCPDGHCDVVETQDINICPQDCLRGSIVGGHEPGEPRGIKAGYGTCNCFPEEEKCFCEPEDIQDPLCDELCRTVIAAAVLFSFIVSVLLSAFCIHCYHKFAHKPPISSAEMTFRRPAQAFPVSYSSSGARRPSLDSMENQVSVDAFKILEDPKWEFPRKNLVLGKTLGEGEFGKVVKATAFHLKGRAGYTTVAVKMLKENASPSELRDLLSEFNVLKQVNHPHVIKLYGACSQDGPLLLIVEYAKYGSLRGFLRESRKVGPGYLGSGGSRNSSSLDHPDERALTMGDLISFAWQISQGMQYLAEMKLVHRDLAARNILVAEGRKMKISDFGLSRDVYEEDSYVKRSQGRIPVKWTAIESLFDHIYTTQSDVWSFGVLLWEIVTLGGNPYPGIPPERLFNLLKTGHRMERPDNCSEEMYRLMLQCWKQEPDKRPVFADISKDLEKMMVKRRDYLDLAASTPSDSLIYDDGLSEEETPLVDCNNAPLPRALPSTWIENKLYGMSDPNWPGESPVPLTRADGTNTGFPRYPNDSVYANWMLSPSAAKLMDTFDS
T1 sequence (P35590 22-1138): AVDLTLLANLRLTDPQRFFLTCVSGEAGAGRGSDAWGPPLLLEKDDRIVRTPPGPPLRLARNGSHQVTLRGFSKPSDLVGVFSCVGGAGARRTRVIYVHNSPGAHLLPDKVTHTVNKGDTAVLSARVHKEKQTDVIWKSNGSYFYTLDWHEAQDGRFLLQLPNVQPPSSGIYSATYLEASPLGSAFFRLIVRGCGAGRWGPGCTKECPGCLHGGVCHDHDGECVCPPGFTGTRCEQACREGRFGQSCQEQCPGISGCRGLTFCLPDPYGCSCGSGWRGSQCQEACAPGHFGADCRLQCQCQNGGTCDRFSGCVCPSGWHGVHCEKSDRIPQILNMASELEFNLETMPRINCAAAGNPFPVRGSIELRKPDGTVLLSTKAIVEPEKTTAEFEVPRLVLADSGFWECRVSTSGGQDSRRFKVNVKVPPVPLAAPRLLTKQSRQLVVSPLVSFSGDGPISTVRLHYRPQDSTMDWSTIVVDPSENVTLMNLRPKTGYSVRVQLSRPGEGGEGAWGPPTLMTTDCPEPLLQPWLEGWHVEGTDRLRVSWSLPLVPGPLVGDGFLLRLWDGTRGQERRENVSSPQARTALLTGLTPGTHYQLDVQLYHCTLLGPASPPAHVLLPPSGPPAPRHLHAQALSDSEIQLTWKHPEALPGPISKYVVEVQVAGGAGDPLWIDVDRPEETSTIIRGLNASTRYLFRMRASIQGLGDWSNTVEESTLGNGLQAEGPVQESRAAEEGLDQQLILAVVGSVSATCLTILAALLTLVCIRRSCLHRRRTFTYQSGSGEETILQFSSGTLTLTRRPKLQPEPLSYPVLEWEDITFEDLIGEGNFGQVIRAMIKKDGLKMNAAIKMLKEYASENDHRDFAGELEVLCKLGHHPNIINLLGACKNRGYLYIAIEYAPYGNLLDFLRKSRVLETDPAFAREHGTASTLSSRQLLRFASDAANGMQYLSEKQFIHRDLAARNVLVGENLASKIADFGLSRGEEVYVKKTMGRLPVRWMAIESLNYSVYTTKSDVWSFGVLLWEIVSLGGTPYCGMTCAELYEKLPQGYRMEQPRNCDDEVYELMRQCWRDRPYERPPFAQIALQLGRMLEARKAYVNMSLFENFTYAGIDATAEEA
Chain of SRC (P12931 whole entry): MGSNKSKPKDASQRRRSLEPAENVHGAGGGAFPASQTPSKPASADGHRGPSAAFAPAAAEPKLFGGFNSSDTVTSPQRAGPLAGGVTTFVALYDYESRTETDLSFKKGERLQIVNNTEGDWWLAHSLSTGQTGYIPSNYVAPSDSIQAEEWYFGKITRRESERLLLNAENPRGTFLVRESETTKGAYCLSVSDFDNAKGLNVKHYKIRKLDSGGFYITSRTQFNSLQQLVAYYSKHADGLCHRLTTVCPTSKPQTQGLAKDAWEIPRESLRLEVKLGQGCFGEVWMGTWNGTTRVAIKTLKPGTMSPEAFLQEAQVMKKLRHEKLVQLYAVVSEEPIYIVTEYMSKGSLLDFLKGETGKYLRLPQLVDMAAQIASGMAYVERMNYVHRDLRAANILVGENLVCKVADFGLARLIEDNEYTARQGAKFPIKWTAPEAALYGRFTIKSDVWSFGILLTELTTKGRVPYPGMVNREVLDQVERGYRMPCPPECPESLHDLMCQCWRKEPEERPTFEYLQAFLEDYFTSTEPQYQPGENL

Cc1ccc(NC(=O)c2ccc(CN3CCN(C)CC3)cc2)cc1Nc1nccc(-c2cccnc2)n1 [Imatinib, reference compound]
remaining activity at 10 µM (EGFR): 100%

Cc1ccc(NC(=O)c2ccc(CN3CCN(C)CC3)cc2)cc1Nc1nccc(-c2cccnc2)[n+]1[Pt-2]1([Cl])[NH2+]C2CCCCC2[NH2+]1 (stereo not shown) [1b, oxaliplatin-imatinib]
Percent control (EGFR(T790M)): 78% | Percent control (TIE1): 100% | Percent control (EGFR(L858R)): 81%

C#Cc1cccc(Nc2c3cc(OCCOC)c(OCCOC)cc3nc[n+]2[Pt@SP2-2]([NH3+])([NH3+])[Cl])c1 [2a, cisplatin-erlotinib]
Percent control [1]: 0.9% | Percent control [2]: 49% | Percent control [3]: 30% | Percent control [4]: 25% | Percent control [5]: 15%

COc1cc2c(Nc3ccc(Br)cc3F)ncnc2cc1OCC1CCN(C)CC1 [Vandetanib, reference compound]
remaining activity at 10 µM (SRC): 0.7% | remaining activity at 10 µM (EPHA1): 2.2%

C#Cc1cccc(Nc2ncnc3cc(OCCOC)c(OCCOC)cc23)c1 [Erlotinib]
remaining activity at 10 µM (FLT3(N841I)): 4.8% | remaining activity at 10 µM (RET(M918T)): 3.2% | remaining activity at 10 µM [6]: 0.6% | remaining activity at 10 µM [7]: 0.6% | remaining activity at 10 µM [8]: 0.9%
